Data as given in ChEMBL document CHEMBL1156528, “Acetyl-lysine analog peptides as mechanistic probes of protein deacetylases” (J Biol Chem, 2007).

What follows are molecules tested against NAD-dependent protein deacetylase HST2 (Saccharomyces cerevisiae S288c, UniProt P53686) (assay: Binding affinity to Saccharomyces cerevisiae Hst2 by isothermal titration calorimetry).
NAD-dependent protein deacetylase HST2, sequence (P53686 whole entry): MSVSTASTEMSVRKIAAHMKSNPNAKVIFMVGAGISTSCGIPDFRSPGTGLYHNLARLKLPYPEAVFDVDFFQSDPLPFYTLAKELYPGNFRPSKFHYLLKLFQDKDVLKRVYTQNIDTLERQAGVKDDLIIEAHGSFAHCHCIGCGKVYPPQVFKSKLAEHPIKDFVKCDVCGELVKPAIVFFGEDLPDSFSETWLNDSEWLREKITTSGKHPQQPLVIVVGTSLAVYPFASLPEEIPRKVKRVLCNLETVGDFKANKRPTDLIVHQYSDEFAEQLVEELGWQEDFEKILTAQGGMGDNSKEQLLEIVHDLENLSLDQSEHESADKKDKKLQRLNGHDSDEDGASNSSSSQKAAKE
Molecule CC(=N)NCCCC[C@H](NC(=O)CNC(=O)CNC(=O)[C@@H](NC(=O)[C@H](CO)NC(=O)[C@@H](N)CCCCN)[C@@H](C)O)C(=O)N[C@@H](C)C(=O)N1CCC[C@H]1C(=O)N[C@@H](CCCN=C(N)N)C(=O)N[C@@H](CCCCN)C(=O)N[C@@H](CCC(N)=O)C(=O)O has a Kd of 3.3 µM. Work on C[C@H](NC(=O)[C@H](CCCCNC(=N)N)NC(=O)CNC(=O)CNC(=O)[C@@H](NC(=O)[C@H](CO)NC(=O)[C@@H](N)CCCCN)[C@@H](C)O)C(=O)N1CCC[C@H]1C(=O)N[C@@H](CCCNC(=N)N)C(=O)N[C@@H](CCCCN)C(=O)N[C@@H](CCC(N)=O)C(=O)O yielded a Kd of 3.3 µM. Molecule C[C@H](NC(=O)[C@H](CCCCNC(=O)CO)NC(=O)CNC(=O)CNC(=O)[C@@H](NC(=O)[C@H](CO)NC(=O)[C@@H](N)CCCCN)[C@@H](C)O)C(=O)N1CCC[C@H]1C(=O)N[C@@H](CCCNC(=N)N)C(=O)N[C@@H](CCCCN)C(=O)N[C@@H](CCC(N)=O)C(=O)O has a Kd of 3.3 µM. Work on C[C@H](NC(=O)[C@H](CCCCNC(N)=O)NC(=O)CNC(=O)CNC(=O)[C@@H](NC(=O)[C@H](CO)NC(=O)[C@@H](N)CCCCN)[C@@H](C)O)C(=O)N1CCC[C@H]1C(=O)N[C@@H](CCCN=C(N)N)C(=O)N[C@@H](CCCCN)C(=O)N[C@@H](CCC(N)=O)C(=O)O yielded a Kd of 3.3 µM. In the case of CC(=S)NCCCC[C@H](NC(=O)CNC(=O)CNC(=O)[C@@H](NC(=O)[C@H](CO)NC(=O)[C@@H](N)CCCCN)[C@@H](C)O)C(=O)N[C@@H](C)C(=O)N1CCC[C@H]1C(=O)N[C@@H](CCCNC(=N)N)C(=O)N[C@@H](CCCCN)C(=O)N[C@@H](CCC(N)=O)C(=O)O, the Kd is reported as 3.3 µM. In the case of CCCC(=O)NCCCC[C@H](NC(=O)CNC(=O)CNC(=O)[C@@H](NC(=O)[C@H](CO)NC(=O)[C@@H](N)CCCCN)[C@@H](C)O)C(=O)N[C@@H](C)C(=O)N1CCC[C@H]1C(=O)N[C@@H](CCCN=C(N)N)C(=O)N[C@@H](CCCCN)C(=O)N[C@@H](CCC(N)=O)C(=O)O, the Kd is reported as 16 µM. C[C@H](NC(=O)[C@H](CCCCNC(=O)CF)NC(=O)CNC(=O)CNC(=O)[C@@H](NC(=O)[C@H](CO)NC(=O)[C@@H](N)CCCCN)[C@@H](C)O)C(=O)N1CCC[C@H]1C(=O)N[C@@H](CCCNC(=N)N)C(=O)N[C@@H](CCCCN)C(=O)N[C@@H](CCC(N)=O)C(=O)O gave a Kd of 3.3 µM. In the case of C[C@H](NC(=O)[C@H](CCCCNC(=O)C(F)F)NC(=O)CNC(=O)CNC(=O)[C@@H](NC(=O)[C@H](CO)NC(=O)[C@@H](N)CCCCN)[C@@H](C)O)C(=O)N1CCC[C@H]1C(=O)N[C@@H](CCCN=C(N)N)C(=O)N[C@@H](CCCCN)C(=O)N[C@@H](CCC(N)=O)C(=O)O, the Kd is reported as 3.3 µM.
